According to patent publication US9012651B2, “TRPV3 modulators” (AbbVie Inc., priority 2011, dated 2015):

These molecules were tested against human TRPV3 receptors (Homo sapiens (Human), UniProt Q8NET8) (assay: Calcium flux assay (FLIPR TETRA), inhibition of the 2-APB response). Settings: recombinant HEK293 cells stably expressing TRPV3, Calcium-4 dye, 2-APB at its EC80.
Type: cell-based
Method in brief: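 Responses are given relative to the maximal 2-APB signal in the absence of compound, using peak fluorescence over baseline. Measured by FLIPR Tetra calcium flux in stable human and mouse TRPV3 HEK293 cells after 90-120 min dark dye incubation.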

Sequence of human TRPV3 receptors (Q8NET8 whole entry): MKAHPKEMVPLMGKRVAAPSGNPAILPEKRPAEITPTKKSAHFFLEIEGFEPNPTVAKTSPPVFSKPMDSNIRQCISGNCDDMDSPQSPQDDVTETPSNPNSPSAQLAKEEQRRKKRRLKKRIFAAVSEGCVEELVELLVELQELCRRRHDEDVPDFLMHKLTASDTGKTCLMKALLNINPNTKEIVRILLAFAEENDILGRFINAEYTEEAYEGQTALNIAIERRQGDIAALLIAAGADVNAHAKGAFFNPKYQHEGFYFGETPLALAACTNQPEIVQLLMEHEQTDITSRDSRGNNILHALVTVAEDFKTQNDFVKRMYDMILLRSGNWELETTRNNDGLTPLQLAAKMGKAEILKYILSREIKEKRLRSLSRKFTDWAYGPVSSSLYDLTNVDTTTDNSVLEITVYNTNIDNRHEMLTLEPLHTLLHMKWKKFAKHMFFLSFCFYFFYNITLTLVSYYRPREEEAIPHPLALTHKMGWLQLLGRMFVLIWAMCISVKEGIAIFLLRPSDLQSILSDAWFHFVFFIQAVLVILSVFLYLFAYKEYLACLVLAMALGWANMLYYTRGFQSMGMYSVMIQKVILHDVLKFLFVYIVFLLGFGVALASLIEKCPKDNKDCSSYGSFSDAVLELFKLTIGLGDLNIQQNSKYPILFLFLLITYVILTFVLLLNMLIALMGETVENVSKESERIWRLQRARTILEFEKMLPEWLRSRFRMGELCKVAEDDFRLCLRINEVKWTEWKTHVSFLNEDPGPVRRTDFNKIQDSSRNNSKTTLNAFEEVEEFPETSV

| IC50 [nM] | Structure (SMILES) |
| --- | --- |
| 1870 | CC(O)C(C)NCc1ccnc(-c2ccc(C(F)(F)F)cc2)n1 (stereo not shown) [Example 148, 3-[({2-[4-(trifluoromethyl)phenyl]pyrimidin-4-yl}methyl)amino]butan-2-ol] |
| 180 | CC(C)[C@H](CO)NCc1cccc(-c2ccc(F)c(C(F)(F)F)c2)n1 [Example 267, (2R)-2-[({6-[4-fluoro-3-(trifluoromethyl)phenyl]pyridin-2-yl}methyl)amino]-3-methylbutan-1-ol] |
| 140 | CC(C)[C@H](CO)NCc1nc(-c2ccc(F)c(F)c2)ccc1F [Example 228, (2R)-2-({[6-(3,4-difluorophenyl)-3-fluoropyridin-2-yl]methyl}amino)-3-methylbutan-1-ol] |
| 920 | C=C(c1ccccc1)c1ccc(F)c(CN[C@@H](CO)C(C)C)n1 [Example 124, (2R)-2-({[3-fluoro-6-(1-phenylethenyl)pyridin-2-yl]methyl}amino)-3-methylbutan-1-ol] |
| 7830 | C[C@H](CO)NCc1ccnc(-c2ccc(C(F)(F)F)cc2)n1 [Example 137, (2R)-2-[({2-[4-(trifluoromethyl)phenyl]pyrimidin-4-yl}methyl)amino]propan-1-ol] |
| 1070 | Cc1ccc(-c2ccc(C(F)(F)F)nc2)nc1CN[C@@H](CO)C(C)C [Example 111, (2R)-3-methyl-2-({[5-methyl-6′-(trifluoromethyl)-2,3′-bipyridin-6-yl]methyl}amino)butan-1-ol] |
| 2550 | C[C@@H](O)[C@H](NCc1nc(-c2ccc(C(F)(F)F)nc2)ccc1F)C(=O)Nc1ccc2ccccc2c1 [Example 130, N^2-{[5-fluoro-6′-(trifluoromethyl)-2,3′-bipyridin-6-yl]methyl}-N-naphthalen-2-yl-L-threoninamide] |
| > 20000 | OC[C@H](NCc1ccnc(-c2ccc(C(F)(F)F)nc2)n1)C1CC1 [Example 188, (2R)-2-cyclopropyl-2-[({2-[6-(trifluoromethyl)pyridin-3-yl]pyrimidin-4-yl}methyl)amino]ethanol] |
| 2760 | CC(C)[C@@H](NCc1nc(-c2ccc(C(F)(F)F)cc2)ccc1F)C(C)(C)O [Example 105, (3R)-3-[({3-fluoro-6-[4-(trifluoromethyl)phenyl]pyridin-2-yl}methyl)amino]-2,4-dimethylpentan-2-ol] |
| 480 | CC(C)[C@H](CO)NCc1nc(C2CCCC2)ccc1F [Example 220, (2R)-2-{[(6-cyclopentyl-3-fluoropyridin-2-yl)methyl]amino}-3-methylbutan-1-ol] |
| 5670 | CC(C)[C@H](CO)NCc1nc(C2CCCC3(C2)OCCO3)ccc1F (stereo partly drawn) [Example 215, (2R)-2-({[6-(1,4-dioxaspiro[4.5]dec-7-yl)-3-fluoropyridin-2-yl]methyl}amino)-3-methylbutan-1-ol] |
| 4000 | CC(C)[C@H](CO)NCc1nc(-c2cccc(C(=O)N3CCSCC3)c2)ccc1F [Example 62, {3-[5-fluoro-6-({[(2R)-1-hydroxy-3-methylbutan-2-yl]amino}methyl)pyridin-2-yl]phenyl}(thiomorpholin-4-yl)methanone] |
| 460 | CC(C)[C@H](CO)NCc1nc(-c2cccc(N(C)C)c2)ccc1F [Example 43, (2R)-2-[({6-[3-(dimethylamino)phenyl]-3-fluoropyridin-2-yl}methyl)amino]-3-methylbutan-1-ol] |
| 4900 | CCC[C@H](CO)NCc1ccnc(-c2ccc(C(F)(F)F)cc2)n1 [Example 141, (2R)-2-[({2-[4-(trifluoromethyl)phenyl]pyrimidin-4-yl}methyl)amino]pentan-1-ol] |
| 1080 | CC(C)[C@H](CO)NCc1nc(-c2cccc(S(=O)(=O)N3CCCC3)c2)ccc1F [Example 60, (2R)-2-[({3-fluoro-6-[3-(pyrrolidin-1-ylsulfonyl)phenyl]pyridin-2-yl}methyl)amino]-3-methylbutan-1-ol] |
| 8280 | CC(C)[C@H](CO)NCc1nc(C2CCC3(CC2)OCCO3)ccc1F [Example 214, (2R)-2-({[6-(1,4-dioxaspiro[4.5]dec-8-yl)-3-fluoropyridin-2-yl]methyl}amino)-3-methylbutan-1-ol] |
| 350 | CC(C)[C@H](CO)NCc1nc(-c2cc3ccccc3n2C)ccc1F [Example 249, (2R)-2-({[3-fluoro-6-(1-methyl-1H-indol-2-yl)pyridin-2-yl]methyl}amino)-3-methylbutan-1-ol] |
| 390 | OCC1(NCc2cccc(-c3ccc(F)c(Cl)c3)n2)CCCC1 [Example 266, [1-({[6-(3-chloro-4-fluorophenyl)pyridin-2-yl]methyl}amino)cyclopentyl]methanol] |
| 380 | Cc1ccc(-c2ccc(F)c(CN[C@@H](CO)C(C)C)n2)s1 [Example 243, (2R)-2-({[3-fluoro-6-(5-methylthiophen-2-yl)pyridin-2-yl]methyl}amino)-3-methylbutan-1-ol] |
| > 20000 | CC(C)[C@H](CO)NCc1nc(C2CCOCC2)ccc1F [Example 204, (2R)-2-({[3-fluoro-6-(tetrahydro-2H-pyran-4-yl)pyridin-2-yl]methyl}amino)-3-methylbutan-1-ol] |

| IC50 [nM] | Structure (SMILES) |
| --- | --- |
| 540 | CC(C)[C@@H](NCc1nc(-c2ccc(C(F)(F)F)nc2)ccc1F)C(C)O (stereo partly drawn) [Example 108, (3R)-3-({[5-fluoro-6′-(trifluoromethyl)-2,3′-bipyridin-6-yl]methyl}amino)-4-methylpentan-2-ol] |
| 590 | CC(C)[C@H](CO)NCc1nc(-c2ccc(OCC(F)(F)F)nc2)ccc1F [Example 68, (2R)-2-({[5-fluoro-6′-(2,2,2-trifluoroethoxy)-2,3′-bipyridin-6-yl]methyl}amino)-3-methylbutan-1-ol] |
| 500 | CC(C)Oc1ccc(-c2ccc(F)c(CN[C@@H](CO)C(C)C)n2)cn1 [Example 57, (2R)-2-({[5-fluoro-6′-(propan-2-yloxy)-2,3′-bipyridin-6-yl]methyl}amino)-3-methylbutan-1-ol] |
| 160 | CC(C)[C@H](CO)NCc1nc(N2Cc3ccccc3C2)ccc1F [Example 71, (2R)-2-({[6-[1,3-dihydro-2H-isoindol-2-yl)-3-fluoropyridin-2-yl]methyl}amino)-3-methylbutan-1-ol] |
| 1630 | C=C(c1ccc(F)cc1)c1ccc(F)c(CN[C@@H](CO)C(C)C)n1 [Example 125, (2R)-2-[({3-fluoro-6-[1-(4-fluorophenyl)ethenyl]pyridin-2-yl}methyl)amino]-3-methylbutan-1-ol] |
| > 20000 | C[C@@H](O)[C@@H](CO)NCc1ccnc(-c2ccc(C(F)(F)F)nc2)n1 [Example 191, (2R,3R)-2-[({2-[6-(trifluoromethyl)pyridin-3-yl]pyrimidin-4-yl}methyl)amino]butane-1,3-diol] |
| 3790 | CC(C)[C@H](CO)NCc1cccc(N2CCCC2)n1 [Example 10, (2R)-3-methyl-2-({[6-(pyrrolidin-1-yl)pyridin-2-yl]methyl}amino)butan-1-ol] |
| > 20000 | O[C@H]1CCC[C@@H]1NCc1ccnc(-c2ccc(C(F)(F)F)cc2)n1 [Example 174, (1S,2S)-2-[({2-[4-(trifluoromethyl)phenyl]pyrimidin-4-yl}methyl)amino]cyclopentanol] |
| 3470 | CC(C)[C@H](CO)NCc1nc(-c2cccc(C(=O)N3CCCCC3)c2)ccc1F [Example 45, {3-[5-fluoro-6-({[(2R)-1-hydroxy-3-methylbutan-2-yl]amino}methyl)pyridin-2-yl]phenyl}(piperidin-1-yl)methanone] |
| > 20000 | OC1(CNCc2ccnc(-c3ccc(C(F)(F)F)cc3)n2)CCCC1 [Example 177, 1-{[({2-[4-(trifluoromethyl)phenyl]pyrimidin-4-yl}methyl)amino]methyl}cyclopentanol] |
| > 20000 | C[C@H](O)[C@@H](CO)NCc1ccnc(-c2ccc(C(F)(F)F)cc2)n1 [Example 151, (2R,3S)-2-[({2-[4-(trifluoromethyl)phenyl]pyrimidin-4-yl}methyl)amino]butane-1,3-diol] |
| 1390 | CC(C)[C@H](CO)NCc1nc(-c2ccc(Cl)c(Cl)c2)ccc1F [Example 20, (2R)-2-({[6-(3,4-dichlorophenyl)-3-fluoropyridin-2-yl]methyl}amino)-3-methylbutan-1-ol] |
| > 20000 | OC[C@H](NCc1ccnc(-c2ccc(C(F)(F)F)cn2)n1)C1CC1 [Example 196, (2R)-2-cyclopropyl-2-[({2-[5-(trifluoromethyl)pyridin-2-yl]pyrimidin-4-yl}methyl)amino]ethanol] |
| > 20000 | OCC1(CNCc2ccnc(-c3ccc(C(F)(F)F)cc3)n2)COC1 [Example 160] |
| 700 | Cc1cc(-c2ccc(F)c(CN[C@@H](CO)C(C)C)n2)cnc1N1CCOCC1 [Example 253, (2R)-2-({[5-fluoro-5′-methyl-6′-(morpholin-4-yl)-2,3′-bipyridin-6-yl]methyl}amino)-3-methylbutan-1-ol] |
| 370 | CC(C)[C@H](CO)NCc1nc(-c2cc(C(F)(F)F)ccc2F)ccc1F [Example 282, (2R)-2-[({3-fluoro-6-[2-fluoro-5-(trifluoromethyl)phenyl]pyridin-2-yl}methyl)amino]-3-methylbutan-1-ol] |
| 300 | CC(C)[C@H](CO)NCc1nc(-c2cccc(-n3cccn3)c2)ccc1F [Example 260, (2R)-2-[({3-fluoro-6-[3-(1H-pyrazol-1-yl)phenyl]pyridin-2-yl}methyl)amino]-3-methylbutan-1-ol] |
| 13500 | O=S(=O)(c1ccc(-c2nccc(CNC3(CO)CCCCC3)n2)cc1)C(F)(F)F [Example 208, (1-{[(2-{4-[(trifluoromethyl)sulfonyl]phenyl}pyrimidin-4-yl)methyl]amino}cyclohexyl)methanol] |
| > 20000 | OCC1(NCc2ccnc(-c3ccc(C(F)(F)F)cc3)n2)CCC1 [Example 132, {1-[({2-[4-(trifluoromethyl)phenyl]pyrimidin-4-yl}methyl)amino]cyclobutyl}methanol] |
| 350 | CC(C)[C@H](CO)NCc1nc(C2CCc3ccccc3C2)ccc1F (stereo partly drawn) [Example 217, (2R)-2-({[3-fluoro-6-(1,2,3,4-tetrahydronaphthalen-2-yl)pyridin-2-yl]methyl}amino)-3-methylbutan-1-ol] |
